Here are results for 4 compounds from patent US20260166128A1, “HUMAN AMYLIN ANALOG, AND DERIVATIVE THEREOF AND USE THEREOF” (priority 2022, published 2026).

Numbered stars: 1 amine (or outer) side, 2 acyl side, 3 side chain; on linkers, the order of the positions; unused ones are H or OH. Bridge positions count the residues as written; N and C are the ends. Square brackets hold non-standard residues; d marks the D form. Side chains are listed from the residue outwards. Peptide text beside a SMILES is read from it. * marks the point of attachment. C20 diacid = O=C(O)CCCCCCCCCCCCCCCCCCC(=O)*; C18 diacid = O=C(O)CCCCCCCCCCCCCCCCC(=O)*; γGlu = O=C(O)[C@H](CCC(=O)[*:2])N[*:1]; Hyp = O=C(O)[C@@H]1C[C@@H](O)CN1; Aze = O=C(O)[C@@H]1CCN1; AEEA = NCCOCCOCC(=O)O

Series [1] deals with T1, human amylin receptor (Homo sapiens, UniProt O60896+P30988).
T1 construct: host or cells: CHO-K1/Ga15/AMY3 cells, further stably transfected with a CRE-luciferase plasmid
T1 sequence (P30988 25-474): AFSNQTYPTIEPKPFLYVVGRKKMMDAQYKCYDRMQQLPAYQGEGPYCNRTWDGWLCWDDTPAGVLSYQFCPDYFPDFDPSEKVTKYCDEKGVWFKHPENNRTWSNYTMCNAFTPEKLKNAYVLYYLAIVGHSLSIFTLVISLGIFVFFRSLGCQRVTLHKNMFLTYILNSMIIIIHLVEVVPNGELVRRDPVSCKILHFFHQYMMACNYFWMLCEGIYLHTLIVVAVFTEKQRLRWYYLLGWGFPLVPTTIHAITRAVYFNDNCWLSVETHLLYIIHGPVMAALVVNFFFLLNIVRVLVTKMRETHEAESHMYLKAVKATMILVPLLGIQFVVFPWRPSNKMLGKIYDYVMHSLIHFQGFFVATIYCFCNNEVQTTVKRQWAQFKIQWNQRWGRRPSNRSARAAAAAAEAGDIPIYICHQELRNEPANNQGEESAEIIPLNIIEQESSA
T1 sequence (O60896 24-148 partner): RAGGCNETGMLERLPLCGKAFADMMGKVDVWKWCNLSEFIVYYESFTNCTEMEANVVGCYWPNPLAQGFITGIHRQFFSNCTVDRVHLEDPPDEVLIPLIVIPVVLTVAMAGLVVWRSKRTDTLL
Briefly: Luciferase assay of amylin derivatives in amylin receptor/CRE-luc CHO cell line. The series is classed as cell-based. The note with it: CHO-K1/Ga15/AMY3 CRE-luc cells, 24 hours incubation, F12 medium containing 10% FBS; read-out: EC50.
Description: The experiment was intended to detect the activity or efficacy of the amylin derivatives on a human amylin receptor in vitro by luciferase assay.
50 μL of growth medium (F12 medium containing 10% FBS) was added into each well of a white 96-well plate, and the stably transfected amylin/CRE-lue CHO cells were inoculated into the white 96-well plate at a density of about 20,000 cells/well for activity determination.

Series [2] can be described thus: Freeze-thaw stability of derivatives (freeze-thaw yield by liquid chromatography). The series is classed as physicochemical. The note with it: for Dissolution property: appearance after dissolution at 0.2 mg/ml in 20 mM phosphate buffer solution (PB) (pH 7.0); for Freeze storage property: appearance after overnight storage at −20° C. and thawing to room temperature, 0.2 mg/ml in 20 mM PB (pH 7.0); for Freeze storage yield: concentration of polypeptide after freezing and thawing / concentration before, by liquid chromatography, −20° C. overnight. In outline: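 Freeze-thaw yield is the ratio of peptide concentration after versus before one overnight −20° C freeze and room-temperature thaw, both quantified by RP-HPLC of supernatant after centrifugation. Samples were 0.2 mg/ml freeze-dried derivative in 20 mM PB, pH 7.0.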

For orientation: EC50 means the concentration that produces a half-maximal response. In the case of `CC[C@H](C)[C@H](NC(=O)[C@@H]1CCCN1C(=O)[C@H](CCCCNC(=O)COCCOCCNC(=O)COCCOCCNC(=O)CC[C@H](NC(=O)CCCCCCCCCCCCCCCCCCC(=O)O)C(=O)O)NC(=O)[C@H](CC(C)C)NC(=O)[C@H](CC(N)=O)NC(=O)[C@H](CC(N)=O)NC(=O)[C@H](CO)NC(=O)[C@H](CO)NC(=O)[C@H](Cc1c[nH]cn1)NC(=O)[C@H](CCCNC(=N)N)NC(=O)[C@H](CC(C)C)NC(=O)[C@H](Cc1ccccc1)NC(=O)[C@H](CCC(=O)O)NC(=O)[C@H](C)NC(=O)[C@H](CC(C)C)NC(=O)[C@H](CCCNC(=N)N)NC(=O)[C@H](CCC(N)=O)NC(=O)[C@@H](NC(=O)[C@H](C)NC(=O)[C@@H]1CSSC[C@H](NC(=O)[C@@H](N)CCCNC(=N)N)C(=O)N[C@@H](CC(N)=O)C(=O)N[C@@H]([C@@H](C)O)C(=O)N[C@@H](C)C(=O)N[C@@H]([C@@H](C)O)C(=O)N1)[C@@H](C)O)C(=O)N[C@@H](CC(C)C)C(=O)N1CCC[C@H]1C(=O)N1CCC[C@H]1C(=O)N[C@H](C(=O)N[C@@H](CC(N)=O)C(=O)N[C@H](C(=O)NCC(=O)N[C@@H](CO)C(=O)N[C@@H](CC(N)=O)C(=O)N[C@H](C(=O)N1CCC[C@H]1C(N)=O)[C@@H](C)O)C(C)C)[C@@H](C)O` [PD004] (H-RCNTATCATQRLAEFLRHSSNNLK([AEEA-AEEA-γGlu-C20 diacid])PILPPTNVGSNTP-NH2; disulfide 2-7 (inferred); N-terminus assumed), the EC50 in series [1] came out at 0.102 nM. Besides, in series [2], the Dissolution property entry is given as “Clear” and the Freeze storage property entry is reported as “Clear”.

Consider `CC[C@H](C)[C@H](NC(=O)[C@@H]1CCCN1C(=O)[C@H](CCCCNC(=O)CC[C@H](NC(=O)CCCCCCCCCCCCCCCCCCC(=O)O)C(=O)O)NC(=O)[C@H](CC(C)C)NC(=O)[C@H](CC(N)=O)NC(=O)[C@H](CC(N)=O)NC(=O)[C@H](CO)NC(=O)[C@H](CO)NC(=O)[C@H](Cc1c[nH]cn1)NC(=O)[C@H](CCCNC(=N)N)NC(=O)[C@H](CC(C)C)NC(=O)[C@H](Cc1ccccc1)NC(=O)[C@H](CCC(=O)O)NC(=O)[C@H](C)NC(=O)[C@H](CC(C)C)NC(=O)[C@H](CCCNC(=N)N)NC(=O)[C@H](CCC(N)=O)NC(=O)[C@@H](NC(=O)[C@H](C)NC(=O)[C@@H]1CSSC[C@H](NC(=O)[C@@H](N)CCCNC(=N)N)C(=O)N[C@@H](CC(N)=O)C(=O)N[C@@H]([C@@H](C)O)C(=O)N[C@@H](C)C(=O)N[C@@H]([C@@H](C)O)C(=O)N1)[C@@H](C)O)C(=O)N[C@@H](CC(C)C)C(=O)N1CCC[C@H]1C(=O)N1CCC[C@H]1C(=O)N[C@H](C(=O)N[C@@H](CC(N)=O)C(=O)N[C@H](C(=O)NCC(=O)N[C@@H](CO)C(=O)N[C@@H](CC(N)=O)C(=O)N[C@H](C(=O)N1CCC[C@H]1C(N)=O)[C@@H](C)O)C(C)C)[C@@H](C)O` [PD047] (H-RCNTATCATQRLAEFLRHSSNNLK([γGlu-C20 diacid])PILPPTNVGSNTP-NH2; disulfide 2-7 (inferred); N-terminus assumed), for which the 50% effective concentration (EC50) in series [1] worked out at 0.073 nM. Further, the Freeze storage yield in series [2] amounted to 0.00%.

Regarding `CC[C@H](C)[C@H](NC(=O)[C@@H]1CCCN1C(=O)[C@H](CCCCNC(=O)CC[C@H](NC(=O)CCCCCCCCCCCCCCCCCCC(=O)O)C(=O)O)NC(=O)[C@H](CC(C)C)NC(=O)[C@H](CC(N)=O)NC(=O)[C@H](CC(N)=O)NC(=O)[C@H](CO)NC(=O)[C@H](CO)NC(=O)[C@H](Cc1c[nH]cn1)NC(=O)[C@H](CCCNC(=N)N)NC(=O)[C@H](CC(C)C)NC(=O)[C@H](Cc1ccccc1)NC(=O)[C@H](CC(=O)O)NC(=O)[C@H](C)NC(=O)[C@H](CC(C)C)NC(=O)[C@H](CCCNC(=N)N)NC(=O)[C@H](CCC(N)=O)NC(=O)[C@@H](NC(=O)[C@H](C)NC(=O)[C@@H]1CSSC[C@H](NC(=O)[C@@H](N)CCCNC(=N)N)C(=O)N[C@@H](CC(N)=O)C(=O)N[C@@H]([C@@H](C)O)C(=O)N[C@@H](C)C(=O)N[C@@H]([C@@H](C)O)C(=O)N1)[C@@H](C)O)C(=O)N[C@@H](CC(C)C)C(=O)N1CCC[C@H]1C(=O)N1CCC[C@H]1C(=O)N[C@H](C(=O)N[C@@H](CC(N)=O)C(=O)N[C@H](C(=O)NCC(=O)N[C@@H](CO)C(=O)N[C@@H](CC(N)=O)C(=O)N[C@H](C(=O)N1CC[C@H]1C(N)=O)[C@@H](C)O)C(C)C)[C@@H](C)O` [PD060] (H-RCNTATCATQRLADFLRHSSNNLK([γGlu-C20 diacid])PILPPTNVGSNT[Aze]-NH2; disulfide 2-7 (inferred)), the EC50 in series [1] came out at 0.246 nM. In series [2], the Dissolution property result is “Clear”, the Freeze storage property entry is listed as “Clear” and the Freeze storage yield is reported as 104.35%.

As to `CC[C@H](C)[C@H](NC(=O)[C@@H]1CCCN1C(=O)CNC(=O)[C@H](CC(C)C)NC(=O)[C@H](CC(N)=O)NC(=O)[C@H](CC(N)=O)NC(=O)[C@H](CCCCNC(=O)COCCOCCNC(=O)CC[C@H](NC(=O)CCCCCCCCCCCCCCCCC(=O)O)C(=O)O)NC(=O)[C@H](CO)NC(=O)[C@H](Cc1c[nH]cn1)NC(=O)[C@H](CCCNC(=N)N)NC(=O)[C@H](CC(C)C)NC(=O)[C@H](Cc1ccccc1)NC(=O)[C@H](CC(=O)O)NC(=O)[C@H](C)NC(=O)[C@H](CC(C)C)NC(=O)[C@H](CCCNC(=N)N)NC(=O)[C@H](CCC(N)=O)NC(=O)[C@@H](NC(=O)[C@H](C)NC(=O)[C@@H]1CSSC[C@H](NC(=O)[C@@H](N)CCCNC(=N)N)C(=O)N[C@@H](CC(N)=O)C(=O)N[C@@H]([C@@H](C)O)C(=O)N[C@@H](C)C(=O)N[C@@H]([C@@H](C)O)C(=O)N1)[C@@H](C)O)C(=O)N[C@@H](CC(C)C)C(=O)N1CCC[C@H]1C(=O)N1CCC[C@H]1C(=O)N[C@H](C(=O)N[C@@H](CC(N)=O)C(=O)N[C@H](C(=O)NCC(=O)N[C@@H](CO)C(=O)N[C@@H](CC(N)=O)C(=O)N[C@H](C(=O)N1C[C@H](O)C[C@H]1C(N)=O)[C@@H](C)O)C(C)C)[C@@H](C)O` [PD117] (H-RCNTATCATQRLADFLRHSK([AEEA-γGlu-C18 diacid])NNLGPILPPTNVGSNT[Hyp]-NH2; disulfide 2-7 (inferred); N-terminus assumed), the 50% effective concentration (EC50) in series [1] was determined as 0.014 nM. Moreover, in series [2], the Dissolution property entry is “Clear”, the Freeze storage property result was “Clear” and the Freeze storage yield stood at 93.49%.
